Source: paper PMC4182301, “Design, synthesis and SAR exploration of tri-substituted 1,2,4-triazoles as inhibitors of the annexin A2–S100A10 protein interaction” (Bioorganic & Medicinal Chemistry, 2014)
“Also recorded” adds a separate entry of the source.

Legend:
[1] = target: T1, native complex between annexin A2 and S100A10 (Homo sapiens, UniProt P60903); assay: Co-immunoprecipitation of AnxA2 with S100A10 (native complex) from cell lysates, Western blot; type: binding; details: MDA-MB-231 cell lysates preincubated with compound or peptide; compared with vehicle
T1 construct: the native complex of the two full-length proteins, AnxA2 and S100A10; endogenous in cells; host or cells: MDA-MB-231 human breast cancer cells (lysate)
Description: In the presence of the isolated synthetic peptide AnxA2(1–14), the amount of AnxA2 in the S100A10 immunoprecipitate is reduced, due to it competing with the binding between native AnxA2 and S100A10.
Figure 5 Co-immunoprecipitation of AnxA2 with S100A10. S100A10 was immunoprecipitated from cell lysates and co-immunoprecipitation of AnxA2 was assessed by Western blotting. The amount of AnxA2 in the S100A10 immunoprecipitate was quantified using Scion Image Software and expressed as a percentage of the vehicle-treated sample (n = 4 ± SE).
Human MDA-MB-231 breast cancer cells were extracted in 50 mM Tris–HCl (pH 8.0) buffer containing 150 mM sodium chloride and 1% (v/v) NP-40. Lysates were centrifuged at 17,000×g and incubated at 4 °C for 16 h with 10 μL S100A10 antibody (BD transduction Laboratories) and 50 μL protein A/G agarose (Alpha Diagnostic International Inc). […] The supernatant was then analyzed by SDS–PAGE after which the gel was transferred to a nitrocellulose filter. […]

[2] = target: interaction between the AnxA2 N-terminus and S100A10 (Homo sapiens, UniProt P60903); assay: Fluorescence screening assay (FRET competitive binding, Cy3-AnxA2(Ac1–14) peptide / Cy5-S100A10)
Description: Assessment of compound activity was performed as described.[35] Briefly, a Cy5-labelled S100A10 tracer was developed and binding of a Cy3-labelled AnxA2(Ac1–14) peptide ligand was assessed using a fluorescence resonance energy transfer readout. Assays were carried out in Nunc black non-treated 384-well plates at 20 °C in 50 μL buffer C. All incubations were performed in quadruplicate. Compounds, peptide and buffer controls were added to the wells in a 10 μL volume in 5% DMSO. Cy5-labelled S100A10 tracer (407 nM) and Cy3-labelled AnxA2(Ac1–14) peptide ligand (1.33 μM) were pre-incubated for 5 min at 20 °C and 40 μL of the preformed complex was then added to the wells and mixed for 10 s to yield a final DMSO concentration of 1%. After 5 min incubation at 20 °C, readings were taken on a Perkin Elmer Envision plate reader by excitation at 488 nm and emission at 695 nm. Fluorescence resonance energy transfer (FRET) was calculated by subtracting the sum of the fluorescence emission of S100A10-Cy5 and AA2(1–14)-Cy3 individually from that measured for the co-incubated partners. Compound binding was calculated as percentage of non-treated control and data were analysed by non-linear regression (dose response—variable slope with bottom and top parameters fixed at 0% and 100%, respectively) using Graphpad Prism Software to determine the IC50 of binding (primary assay).

Chain of interaction between the AnxA2 N-terminus and S100A10 (P60903 whole entry, species assumed): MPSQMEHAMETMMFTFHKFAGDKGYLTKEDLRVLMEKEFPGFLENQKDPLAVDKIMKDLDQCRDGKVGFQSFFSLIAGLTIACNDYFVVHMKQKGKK
T1 sequence (P60903 whole entry, one chain of several): as the sequence (P60903 whole entry, species assumed) above

Compound: Cc1cc(C)nc(SCc2nnc(SCC(=O)Nc3ccc(C(C)C)cc3)n2Cc2ccco2)n1 [Compound 36, 2-[5-(4,6-Dimethyl-pyrimidin-2-ylsulfanylmethyl)-4-furan-2-ylmethyl-4H-[1,2,4]triazol-3-ylsulfanyl]-N-(4-isopropyl-phenyl)-acetamide]
- amount of AnxA2 in the S100A10 immunoprecipitate [1]: disrupt the native complex; also recorded: reduced
- pIC50 ± SE ([2]; Table 1, FRET assay, 12 observations): 5.35 ± 0.04
- IC50 ([2]; Table 1, FRET assay, 12 observations, read-out: IC50): 4 µM
- fold increase in potency compared to initial hit compound 1a ([2]; relative to 1a): ~10 fold
